12 compounds from patent US4933350A, “Pyrroloisoquinolines useful as hypercholesterolemic and hyperlipoprotienimic agents” (May & Baker Limited, priority 1987, dated 1990) can be followed below.

The target in assay [1] is T1, rat hepatic microsomal HMG CoA reductase (Rattus norvegicus, UniProt P51639).
T1 construct: rat hepatic microsomal HMG CoA reductase activity in vitro; from tissue; host or cells: rat liver microsomes
T1 sequence (P51639 1-887): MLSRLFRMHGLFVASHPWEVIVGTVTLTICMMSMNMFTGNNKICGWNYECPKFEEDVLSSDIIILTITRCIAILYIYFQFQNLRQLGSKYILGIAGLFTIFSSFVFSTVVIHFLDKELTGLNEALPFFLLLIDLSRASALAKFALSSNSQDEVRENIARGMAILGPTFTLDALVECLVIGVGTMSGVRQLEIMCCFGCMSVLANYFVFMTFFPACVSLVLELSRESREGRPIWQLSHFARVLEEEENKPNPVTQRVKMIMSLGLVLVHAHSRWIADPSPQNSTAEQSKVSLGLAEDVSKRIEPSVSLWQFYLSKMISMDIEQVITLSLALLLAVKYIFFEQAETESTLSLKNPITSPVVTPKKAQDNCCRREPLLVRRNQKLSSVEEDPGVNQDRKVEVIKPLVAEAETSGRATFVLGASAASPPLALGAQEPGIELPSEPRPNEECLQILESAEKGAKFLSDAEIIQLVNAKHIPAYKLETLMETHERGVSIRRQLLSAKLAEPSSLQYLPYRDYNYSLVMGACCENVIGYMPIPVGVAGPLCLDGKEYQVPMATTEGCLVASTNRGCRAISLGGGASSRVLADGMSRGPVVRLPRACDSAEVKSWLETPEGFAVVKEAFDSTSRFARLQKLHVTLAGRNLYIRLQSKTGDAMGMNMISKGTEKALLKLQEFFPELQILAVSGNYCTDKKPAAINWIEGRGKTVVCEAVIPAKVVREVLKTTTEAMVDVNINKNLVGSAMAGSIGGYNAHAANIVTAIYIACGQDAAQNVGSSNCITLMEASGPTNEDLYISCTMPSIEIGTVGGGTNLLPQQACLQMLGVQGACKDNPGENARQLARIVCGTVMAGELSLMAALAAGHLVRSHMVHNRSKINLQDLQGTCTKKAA
In words: inhibition in rat hepatic microsomal HMG CoA reductase activity in vitro (Table I). The conditions noted are these: for inhibition at 0.0091 µg/mL: 0.0091 micrograms/ml; for inhibition at 0.0274 µg/mL: 0.0274 micrograms/ml; for inhibition at 0.082 µg/mL: 0.082 micrograms/ml; for inhibition at 0.24 µg/mL: 0.24 micrograms/ml; for inhibition at 0.74 µg/mL: 0.74 micrograms/ml; for inhibition at 2.22 µg/mL: 2.22 micrograms/ml; for inhibition at 6.66 µg/mL: 6.66 micrograms/ml; for inhibition at 20 µg/mL: 20.0 micrograms/ml; for inhibition at 0.2 µg/mL: 0.2 micrograms/ml; for inhibition at 0.25 µg/mL: 0.25 micrograms/ml; for inhibition at 6.7 µg/mL: 6.7 micrograms/ml. Type of assay: biochemical.

Assay [2] has as its system cholesterol biosynthesis. In words: inhibition in cholesterol biosynthesis, in vivo tests in rats, oral (Table II). The text has this: In the table the doses are expressed in mg/kg animal body weight.

The structures appear in SMILES notation.

`CC(C)c1c(/C=C/[C@@H](O)C[C@@H](O)CC(=O)O)c(-c2ccc(F)cc2)c2c3ccccc3ccn12` (relative stereo) [OA, sodium erythro-(E)-3,5-dihydroxy-7-{3-isopropyl-1-(4-fluorophenyl)pyrrolo[2,1-a]isoquinolin-2-yl}-hept-6-enoate]: the inhibition at 0.00304 µg/mL in assay [1] (0.00304 micrograms/ml) worked out at 37%. For the same compound, in assay [1], the inhibition at 0.0091 µg/mL turned out to be 43%, the inhibition at 0.0274 µg/mL amounted to 51%, testing at 0.082 µg/mL gave an inhibition of 63% and the inhibition at 0.24 µg/mL was 74%. In addition, in assay [1], at 0.74 µg/mL the inhibition was 87% and the inhibition at 2.22 µg/mL is 95%.

For `CC(C)c1c(/C=C/C(O)CC(O)CC(=O)O)c(-c2ccc(F)cc2)c2c3ccccc3ccn12` (centres unmarked) [O, sodium (E)-3,5-dihydroxy-7-{3-isopropyl-1-(4-fluorophenyl)pyrrolo[2,1-a]isoquinolin-2-yl}-hept-6-enoate], in assay [1], the inhibition at 0.24 µg/mL worked out at 69%, the inhibition at 0.74 µg/mL was 81%, the inhibition at 2.22 µg/mL is 92% and the inhibition at 6.66 µg/mL stood at 97%. Further, 20 µg/mL produced 99% inhibition in assay [1].

On to `CC(C)c1c(/C=C/C(=O)CC(O)CC(=O)O)c(-c2ccc(F)cc2)c2c3ccccc3ccn12` (centres unmarked) [Compound Q, sodium (E)-3-hydroxy-7-{3-isopropyl-1-(4-fluorophenyl)pyrrolo-[2,1-a]isoquinolin-2-yl}-5-oxohept-6-enoate], for which, in assay [1], the inhibition at 0.082 µg/mL is 8%, 0.24 µg/mL produced 22% inhibition, the inhibition at 0.74 µg/mL came to 45% and the inhibition at 2.22 µg/mL came out at 70%. Moreover, the inhibition at 6.66 µg/mL in assay [1] worked out at 89%.

Regarding `CC(C)c1c(/C=C/C(O)CC(O)CC(=O)O)c(-c2ccc(F)cc2)n2ccc3ccccc3c12` (centres unmarked) [Compound M, sodium (E)-3,5-dihydroxy-7-{1-isopropyl-3-(4-fluorophenyl)pyrrolo[2,1-a]isoquinolin-2-yl}hept-6-enoate], the inhibition at 0.0025 µg/mL in assay [1] (0.0025 micrograms/ml) came to 33%. This compound also displayed an inhibition at 0.0074 µg/mL in assay [1] (0.0074 micrograms/ml) of 46%. This compound displayed an inhibition at 0.022 µg/mL in assay [1] (0.022 micrograms/ml) of 63%. In assay [1] (0.066 micrograms/ml), this compound came in with an inhibition at 0.066 µg/mL of 69%. In assay [1], the inhibition at 0.2 µg/mL amounted to 74%, the inhibition at 0.74 µg/mL was determined as 78%, 2.22 µg/mL produced 90% inhibition and 6.66 µg/mL produced 96% inhibition. Further, the inhibition at 20 µg/mL in assay [1] worked out at 98%. In addition, in assay [1] (0.22 micrograms/ml), at 0.22 µg/mL the inhibition was 65%.

In assay [1], `Cc1c(/C=C/C(O)CC(O)CC(=O)O)c(-c2ccccc2)c2c3ccccc3ccn12` (centres unmarked) [Compound I, sodium (E)-3,5-dihydroxy-7-(3-methyl-1-phenylpyrrolo[2,1-a]isoquinolin-2-yl)hept-6-enoate] yielded an inhibition at 0.082 µg/mL of 44%, an inhibition at 0.25 µg/mL of 39%, an inhibition at 0.74 µg/mL of 35% and an inhibition at 2.22 µg/mL of 46%. In assay [1], this compound had an inhibition at 6.66 µg/mL of 68% and an inhibition at 20 µg/mL of 85%.

In assay [1], `CCOC(=O)CC(O)CC(O)/C=C/c1c(-c2ccccc2)c2c3ccccc3ccn2c1C` (centres unmarked) [Compound H, ethyl (E)-3,5-dihydroxy-7-(3-methyl-1-phenylpyrrolo[2,1-a]-isoquinolin-2-yl)hept-6-enoate] gave an inhibition at 0.24 µg/mL of 26%, an inhibition at 0.74 µg/mL of 22%, an inhibition at 2.22 µg/mL of 33% and an inhibition at 6.66 µg/mL of 54%. For the same compound, in assay [1], the inhibition at 20 µg/mL stood at 70%.

In assay [1], `CCOC(=O)CC(O)CC(O)/C=C/c1c(-c2ccc(F)cc2)c2c3ccccc3ccn2c1C(C)C` (centres unmarked) [N, ethyl (E)-3,5-dihydroxy-7-{3-isopropyl-1-(4-fluorophenyl)pyrrolo[2,1-a]isoquinolin-2-yl}hept-6-enoate] displayed an inhibition at 0.0091 µg/mL of 44%, an inhibition at 0.0274 µg/mL of 55%, an inhibition at 0.082 µg/mL of 61% and an inhibition at 0.25 µg/mL of 74%. In assay [1], this compound showed an inhibition at 0.74 µg/mL of 87% and an inhibition at 2.22 µg/mL of 95%.

As for `CC(C)c1c(/C=C/[C@@H](O)C[C@H](O)CC(=O)O)c(-c2ccc(F)cc2)c2c3ccccc3ccn12` (relative stereo) [OB, sodium threo-(E)-3,5-dihydroxy-7-{3-isopropyl-1-(4-fluorophenyl)pyrrolo[2,1-a]isoquinolin-2-yl}-hept-6-enoate], in assay [1], the inhibition at 0.0274 µg/mL stood at 21%, 0.082 µg/mL produced 29% inhibition, the inhibition at 0.25 µg/mL is 38% and the inhibition at 0.74 µg/mL is 53%. Moreover, the inhibition at 2.22 µg/mL in assay [1] was 70%.

In the case of `CC(C)c1c(/C=C/C(=O)CC(O)CC(=O)O)c(-c2ccccc2)c2c3ccccc3ccn12` (centres unmarked) [Compound E, (E)-3-hydroxy-7-(3-isopropyl-1-phenylpyrrolo[2,1-a]isoquinolin-2-yl)-5-oxohept-6-enoic acid], the inhibition at 2.2 µg/mL in assay [1] (2.2 micrograms/ml) was 50%. In assay [1], the inhibition at 6.7 µg/mL was determined as 71% and testing at 20 µg/mL gave an inhibition of 90%.

As for `CCc1c(/C=C/C(O)CC(O)CC(=O)O)c(-c2ccc(F)cc2)c2c3ccccc3ccn12` (centres unmarked) [Compound K, sodium (E)-3,5-dihydroxy-7-{3-ethyl-1-(4-fluorophenyl)pyrrolo-[2,1-a]isoquinolin-2-yl}hept-6-enoate], in assay [1], the inhibition at 0.0274 µg/mL worked out at 27%, the inhibition at 0.082 µg/mL amounted to 33%, the inhibition at 0.24 µg/mL amounted to 46% and the inhibition at 0.74 µg/mL is 68%. Besides, in assay [1], at 2.22 µg/mL the inhibition was 86% and the inhibition at 6.66 µg/mL was 95%.

Regarding `CC(C)c1c(CCC2CC(O)CC(=O)O2)c(-c2ccccc2)c2c3ccccc3ccn12` (centres unmarked) [Compound G, 4-hydroxy-6-[2-(3-isopropyl-1-phenylpyrrolo[2,1-a]isoquinolin-2-yl)ethyl]-3,4,5,6-tetrahydro-2H-pyran-2-one], in assay [1], at 6.7 µg/mL the inhibition was 38% and the inhibition at 20 µg/mL is 44%.

On to `CC(C)c1c(/C=C/C(O)CC(O)CC(=O)[O-])c(-c2ccccc2)c2c3ccccc3ccn12.[Na+]` (centres unmarked) [Compound B, sodium (E)-3,5-dihydroxy-7-(3-isopropyl-1-phenylpyrrolo[2,1-a]isoquinolin-2-yl)hept-6-enoate], for which the inhibition at 0.025 µg/mL in assay [1] (0.025 micrograms/ml) was 16%. This compound returned an inhibition at 0.1 µg/mL in assay [1] (0.1 micrograms/ml) of 28%. Besides, in assay [1], at 0.2 µg/mL the inhibition was 43%. Moreover, the inhibition at 0.4 µg/mL in assay [1] (0.4 micrograms/ml) is 44%. The inhibition at 1.6 µg/mL in assay [1] (1.6 micrograms/ml) amounted to 72%. This compound also returned an inhibition at 2 µg/mL in assay [1] (2.0 micrograms/ml) of 81%. In assay [1] (6.4 micrograms/ml), testing at 6.4 µg/mL gave an inhibition of 91%. For the same compound, the inhibition at 20 µg/mL in assay [1] was found to be 98%. Also, the “% Inhibition in cholesterol biosynthesis” value in assay [2] (oral dose 1.11 mg/kg) stood at 67%; in assay [2] (oral dose 3.33 mg/kg), 77%; in assay [2] (oral dose 10.0 mg/kg) it was 91%.
